{"source": "paper PMC12380724", "about": "“The air pollutant phenanthrene disrupts calcium cycling and alters repolarization in female sheep ventricular cardiomyocytes” (Physiological Reports, 2025)", "target": "T1, ERG channel (rapid delayed rectifier potassium channel, IKr) (Ovis aries, UniProt A0ACI6Q0V2)", "T1 construct": "gene KCNH2; native IKr in isolated left ventricular myocytes", "T1 sequence (A0ACI6Q0V2 1-1163)": "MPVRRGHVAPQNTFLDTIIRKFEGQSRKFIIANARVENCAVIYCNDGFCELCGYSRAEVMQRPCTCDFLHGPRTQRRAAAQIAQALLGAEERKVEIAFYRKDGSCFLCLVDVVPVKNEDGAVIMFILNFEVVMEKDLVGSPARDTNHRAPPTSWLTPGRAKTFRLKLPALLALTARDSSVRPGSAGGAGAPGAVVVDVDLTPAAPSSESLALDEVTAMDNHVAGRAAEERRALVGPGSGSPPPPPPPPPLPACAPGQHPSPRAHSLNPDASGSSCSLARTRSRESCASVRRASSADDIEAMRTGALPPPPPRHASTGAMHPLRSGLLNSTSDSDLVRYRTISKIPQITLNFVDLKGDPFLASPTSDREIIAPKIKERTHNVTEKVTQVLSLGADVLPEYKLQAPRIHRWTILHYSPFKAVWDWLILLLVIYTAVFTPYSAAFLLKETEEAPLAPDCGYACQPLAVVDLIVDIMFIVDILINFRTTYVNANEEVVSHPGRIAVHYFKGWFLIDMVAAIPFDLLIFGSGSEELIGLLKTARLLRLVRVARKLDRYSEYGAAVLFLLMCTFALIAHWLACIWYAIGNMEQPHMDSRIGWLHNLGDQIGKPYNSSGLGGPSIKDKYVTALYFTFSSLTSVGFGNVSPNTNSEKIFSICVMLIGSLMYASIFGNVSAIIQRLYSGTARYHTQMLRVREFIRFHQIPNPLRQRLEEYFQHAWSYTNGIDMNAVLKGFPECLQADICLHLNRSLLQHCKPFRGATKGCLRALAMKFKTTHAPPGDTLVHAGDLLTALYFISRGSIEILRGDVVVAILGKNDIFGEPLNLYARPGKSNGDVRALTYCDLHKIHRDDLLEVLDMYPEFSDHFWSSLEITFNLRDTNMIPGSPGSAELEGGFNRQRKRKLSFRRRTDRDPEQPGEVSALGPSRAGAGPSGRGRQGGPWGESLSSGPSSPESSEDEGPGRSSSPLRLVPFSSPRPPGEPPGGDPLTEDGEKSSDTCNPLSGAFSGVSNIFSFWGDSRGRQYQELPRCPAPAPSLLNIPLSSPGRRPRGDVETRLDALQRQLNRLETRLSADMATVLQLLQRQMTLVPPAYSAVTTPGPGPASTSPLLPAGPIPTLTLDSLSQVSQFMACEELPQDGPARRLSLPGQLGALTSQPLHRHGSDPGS", "experiment": "whole-cell patch-clamp of native IKr tail current", "format": "cell-based"}
{"smiles": "c1ccc2c(c1)ccc1ccccc12", "note": "[Phe, phenanthrene]", "values": [{"measurement": "inhibition at 25 µM", "value": 55.8, "unit": "%"}]}
